Laboratory results taken from patent US20220002280A1, “COMPOUNDS AND METHODS OF USE” (Ferro Therapeutics, Inc., priority 2019, published 2022).

Key:
786-O = assay: Cell proliferation (Alamar Blue) assay, 786-O; assay type: cell-based, human; settings: Homo sapiens, 786-0, 24 h, 786-O cells, 24 h treatment
Method: (§1) A cell viability assay was performed to assess the potency of the compounds in human cancer cell lines 786-0 (renal cell carcinoma), SJSA-1 (osteosarcoma), and/or A431 (epidermoid carcinoma). Additional cell lines, such as pancreatic cancer cell lines (e.g., Panc 02.13, BxPC-3, Panc 12, Panc 02.03, Panc 6.03, PSN-1, HPAC, and Capan-1), prostate cancer cell lines (e.g., PC-3, DU145, 22Rv1, NCI-H660, BPH1, LNCaP, BM-1604, and MDA PCa 2b), etc., can be tested in a similar method.
(§2) Cells (SJSA-1, 786-0 and/or A431) were seeded (5000 cells/100 μL/well) in 96-well tissue culture plate and incubated at 37° C./5% CO2 for 16-24 hours. The cells were then treated with compounds (25 μL of 5×). The compound concentrations were 10-0.0005 μM prepared in 3-fold serial dilutions with final DMSO concentration of 1%. The plates were then incubated for 24h at 37° C./5% CO2 in a moist environment. Then Alamar Blue™ reagent (final concentration 1×-12.5 μL) was added to each well and incubated for 1.5 hours at 37° C./5% CO2. The plates were read on fluorescence reader at 540 nm excitation and 590 nm emission wavelengths. The IC50 values were subsequently determined using a sigmoidal dose-response curve (variable slope) in GraphPad Prism® 5 software.

SJSA-1 = assay: Cell proliferation (Alamar Blue) assay, SJSA-1; assay type: cell-based, human; settings: Homo sapiens, SJSA-1 cells, 24 h treatment
Method: as §1, §2

A549 = assay: Counter-screen in A549 (CellTiter Glo); assay type: cell-based, human; settings: Homo sapiens, A549 cells, 96 hours
Method: Selected compounds were also assayed (counter-screened) in a human lung cancer cell line, A549, a less sensitive cell line to GPX4 inhibitors, as a control to assess differential activity. Cells at a density of 800-2,000 cells/well were seeded in 96-well plates and incubated at 37° C. overnight. A series of nine different concentrations of compound stocks (500×) were created by 3-fold serial dilution in DMSO. These compounds were further diluted in culture media and then added to cells so that the final DMSO concentration was equal to 0.25% or less. After 96 hours of incubation, 50 μL of CellTiter Glo reagent (Promega) was added to each well and luminescence was measured after 10 minutes using EnVision (PerkinElmer). RSL3 (a prototype GPX4 inhibitor, also known as RSL-3) was used as a reference compound titrated from top concentration of up to 30 μM. All compounds were tested initially from 30 µM as the top concentration in duplicates (range of 4.6 nM-30 μM). […] Luminescence from cells treated with DMSO alone was set as Max and % of inhibition was calculated as follows: Inhibition %=(Max-Sample value)/Max*100. Data was analyzed using XL-fit software (ID Business Solutions Ltd.). IC50, relative IC50, or % of top inhibition was calculated.

A431 = assay: Cell proliferation (Alamar Blue) assay, A431; assay type: cell-based, human; settings: Homo sapiens, A-431, A431 cells, 24 h treatment
Method: as §1, §2

[1] = Mouse IV pharmacokinetics; assay type: in vivo, Balb/c mice; settings: male, Balb/c, plasma; Mouse IV-PK (5 mg/kg)
Text: Institutional Animal Ethical Committee (IAEC) of Jubilant Biosys (IAEC/JDC/2019/188R (for Mice) and IAEC/JDC/2019/189R (for Rat) nominated by CPCSEA (Committee for the Purpose of Control and Supervision of Experiments on Animals) approved the mice and rat pharmacokinetic experiments. Male Balb/c mice (˜6-8 weeks old with body weight range of 22-25 g) and male SD rats (6-8 weeks old with body weight range of 200-250 g) were procured from Vivo Biotech, Hyderabad, India. Animals were quarantined in Jubilant Biosys Animal House for a period of 7 days with a 12:12 h light: dark cycles, and prior to the study the animals were stratified as per body weight.
A) Procedure for Mice: Intravenous, oral and intraperitoneal pharmacokinetics study was done at doses of 5, 20 and 10 mg/kg respectively at dose volume of 10 mL/Kg for PO and IP while 5 mL/kg for IV route. Sparse sampling was done and at each time point three mice were used for blood sampling (˜100 μL) were collected from retro-orbital plexus at 0.083 (Only for IV), 0.25, 0.5, 1, 2, 4, 8, 10 (only for PO) and 24 h. Blood samples collected in tubes containing K2.EDTA as anticoagulant and centrifuged for 5 min at 10,000 rpm in a refrigerated centrifuge (Biofuge, Heraeus, Germany) maintained at 4° C. for plasma separation.
Group I (IV) received test compound intravenously by tail vein at 5 mg/Kg in solution formulation prepared using 30% Kolliphore EL in WFI; dose volume: 5 mL/Kg; strength: 1 mg/mL.
Blood concentration-time data of test compound was analyzed by non-compartmental method using Phoenix WinNonlin Version 8.1.

Structure (SMILES) | IC50 (786-O) [µM] | IC50 (SJSA-1) [µM] | IC50 (A431) [µM] | AUC [1] [ng·h/mL] | Cmax [1] [ng/mL] | Vd [1] [L/kg] | clearance [1] [mL/min/kg] | half-life [1] [min] | IC50 (A549) [µM]
COc1cc2c(cc1OC)[C@@H](c1ccc(N3CCOCC3)cc1)N(C(=O)CCl)[C@@H](C)C2 [Compound 45] | 5.89 | > 3 | – | – | – | – | – | – | 4.74
COc1cc2c(cc1OC)[C@H](c1ccc(N3CCOCC3)cc1)N(C(=O)CCl)[C@@H](C)C2 [Compound 44] | 0.592 | 0.599 | – | – | – | – | – | – | 6.58
C#CC(=O)N1[C@@H](CCCC)Cc2cc(OC)ccc2[C@@H]1c1ccc(Nc2cccnc2)cc1 [Compound 94, 1-[(1S,3S)-3-butyl-6-methoxy-1-{4-[(pyridin-3-yl)amino]phenyl}-1,2,3,4-tetrahydroisoquinolin-2-yl]prop-2-yn-1-one] | 0.108 | 0.047 | > 10 | – | – | – | – | – | –
C#CC(=O)N1[C@@H](CCCC)Cc2cc(OC)ccc2[C@@H]1C12CC(N)(C1)C2 [Compound 76, 1-((1S,3S)-1-(3-aminobicyclo[1.1.1]pentan-1-yl)-3-butyl-6-methoxy-3,4-dihydroisoquinolin-2(1H)-yl)prop-2-yn-1-one] | 0.187 | 0.623 | > 10 | – | – | – | – | – | –
C#CC(=O)N1[C@@H](CCCC)Cc2cc(OC)ccc2[C@@H]1c1ccc(NC(=O)OCCCCC)cc1 [Compound 98, pentyl N-{4-[(1S,3S)-3-butyl-6-methoxy-2-(prop-2-ynoyl)-1,2,3,4-tetrahydroisoquinolin-1-yl]phenyl}carbamate] | 0.024 | 0.053 | 8.92 | – | – | – | – | – | –
COC(=O)c1ccc([C@H]2c3ccc(OC)cc3C[C@H](C)N2C(=O)CCl)cc1 [Compound 7, methyl 4-((1S,3S)-2-(2-chloroacetyl)-6-methoxy-3-methyl-1,2,3,4-tetrahydroisoquinolin-1-yl)benzoate] | 0.137 | 0.22 | 7.8 | – | – | – | – | – | –
C#CC(=O)N1[C@H](c2ccc(F)cc2)c2ccc(OC)cc2C[C@@H]1C [Compound 10] | 0.164 | 0.278 | 8.6 | – | – | – | – | – | –
C#CC(=O)N1[C@@H](CCCC)Cc2cc(OC)ccc2[C@@H]1c1ccn(C)n1 [Compound 50, 1-[(1R,3S)-3-butyl-6-methoxy-1-(1-methyl-1H-pyrazol-3-yl)-1,2,3,4-tetrahydroisoquinolin-2-yl]prop-2-yn-1-one] | 0.065 | 0.101 | > 10 | – | – | – | – | – | –
CCCC[C@H]1Cc2cc(OC)ccc2[C@H](c2ccc(NC34CC5CC(CC(C5)C3)C4)cc2)N1C(=O)CCl [Compound 27, 1-((1S,3S)-1-(4-(((3R,5R,7R)-adamantan-1-yl)amino)phenyl)-3-butyl-6-methoxy-3,4-dihydroisoquinolin-2(1H)-yl)-2-chloroethan-1-one] | 0.004 | 0.006 | 8.4 | – | – | – | – | – | –
COc1ccc2c(c1)C[C@H](C)N(C(=O)CCl)[C@@H]2c1ccc(N2CCOCC2)cc1 [Compound 46] | – | 2.56 | – | – | – | – | – | – | 3.83
C#CC(=O)N1[C@@H](CCCC)Cc2cc(OC)ccc2[C@@H]1c1ccccn1 [Compound 49, 1-((1R,3S)-3-butyl-6-methoxy-1-(pyridin-2-yl)-3,4-dihydroisoquinolin-2(1H)-yl)prop-2-yn-1-one] | 0.023 | 0.04 | 6.6 | – | – | – | – | – | –
COC(=O)c1ccc([C@@H]2c3ccc(OC)cc3C[C@H](C)N2C(=O)CCl)cc1 [Compound 6, methyl 4-((1R,3S)-2-(2-chloroacetyl)-6-methoxy-3-methyl-1,2,3,4-tetrahydroisoquinolin-1-yl)benzoate] | 3 | 3.2 | > 10 | – | – | – | – | – | –
COC(=O)c1ccc([C@@H]2c3ccccc3C[C@H](C(=O)OC)N2C(=O)CCl)cc1 [Compound 2, methyl (1R,3R)-2-(2-chloroacetyl)-1-(4-(methoxycarbonyl)phenyl)-1,2,3,4-tetrahydroisoquinoline-3-carboxylate] | 0.742 | 0.855 | 8.7 | – | – | – | – | – | –

Now from value to compound, other results behind:

IC50 (786-O) [µM] | IC50 (SJSA-1) [µM] | IC50 (A431) [µM] | AUC [1] [ng·h/mL] | Cmax [1] [ng/mL] | Vd [1] [L/kg] | clearance [1] [mL/min/kg] | half-life [1] [min] | Structure (SMILES) | IC50 (A549) [µM]
0.024 | 0.07 | 7.6 | – | – | – | – | – | C#CC(=O)N1[C@@H](CCCC)Cc2cc(OC)ccc2[C@@H]1c1ccc(C(=O)NCCOC)cc1 [Compound 14, 4-((1S,3S)-3-butyl-6-methoxy-2-propioloyl-1,2,3,4-tetrahydroisoquinolin-1-yl)-N-(2 methoxyethyl)benzamide] | –
0.026 | 0.068 | > 10 | – | – | – | – | – | C#CC(=O)N1[C@@H](CCCC)Cc2cc(OC)ccc2[C@@H]1c1ccc2ncccc2c1 [Compound 97, 1-((1S,3S)-3-butyl-6-methoxy-1-(quinolin-6-yl)-3,4-dihydroisoquinolin-2(1H)-yl)prop-2-yn-1-one] | –
0.004 | 0.008 | 8.9 | – | – | – | – | – | C#CC(=O)N1[C@@H](CCCC)Cc2cc(OC)ccc2[C@@H]1c1ccc(S(=O)(=O)NC2CCC2)cc1 [Compound 18, 4-((1S,3S)-3-butyl-6-methoxy-2-propioloyl-1,2,3,4-tetrahydroisoquinolin-1-yl)-N-cyclobutylbenzenesulfonamide] | –
0.005 | 0.01 | 10 | – | – | – | – | – | C#CC(=O)N1[C@@H](CCCC)Cc2cc(OC)ccc2[C@@H]1c1ccc(C(=O)NC23CC4CC(CC(C4)C2)C3)cc1 [Compound 38, N-((3R,5R,7R)-adamantan-1-yl)-4-((1S,3S)-3-butyl-6-methoxy-2-propioloyl-1,2,3,4-tetrahydroisoquinolin-1-yl)benzamide] | –
0.053 | 0.05 | 5 | – | – | – | – | – | C#CC(=O)N1C(c2ccnc(C)c2)c2ccc(OC)cc2C[C@@H]1CCCC (stereo in doubt) [Compound 48, 1-((1S,3S)-3-butyl-6-methoxy-1-(2-methylpyridin-4-yl)-3,4-dihydroisoquinolin-2(1H)-yl)prop-2-yn-1-one] | –
0.027 | 0.032 | 2.3 | – | – | – | – | – | C#CC(=O)N1[C@@H](CCCC)Cc2cc(OC)ccc2[C@@H]1c1ccc(-c2nc(C)no2)cc1 [Compound 55, 1-((1S,3S)-3-butyl-6-methoxy-1-(4-(3-methyl-1,2,4-oxadiazol-5-yl)phenyl)-3,4-dihydroisoquinolin-2(1H)-yl)prop-2-yn-1-one] | –
0.014 | 0.025 | 3.5 | 181 | 882 | 19.5 | 454 | 30 | C#CC(=O)N1[C@@H](CCCC)Cc2cc(OC)ccc2[C@@H]1c1ccc(F)cc1 [Compound 12, 1-((1S,3S)-3-butyl-1-(4-fluorophenyl)-6-methoxy-3,4-dihydroisoquinolin-2(1H)-yl)prop-2-yn-1-one] | –
0.013 | 0.021 | 4.06 | – | – | – | – | – | C#CC(=O)N1[C@@H](CCCC)Cc2cc(OC)ccc2[C@@H]1c1ccc(CNC23CC(C2)C3)cc1 [Compound 100] | –
0.01 | 0.018 | 3.5 | – | – | – | – | – | C#CC(=O)N1[C@@H](CCCC)Cc2cc(OC)ccc2[C@@H]1c1ccc(C(=O)NC2CCC2)nc1 [Compound 15, 5-((1R,3S)-3-butyl-6-methoxy-2-propioloyl-1,2,3,4-tetrahydroisoquinolin-1-yl)-N-cyclobutylpicolinamide] | –
